Data taken from patent publication US8058468B2, “Carbamate antibiotics” (Nederlandse Organisatie Voor …, priority 2005, dated 2011).
≈ marks a conversion by molar mass, not a printed value. Where two headings read alike, the source gives them in different places.

Key:
MRSA 2141 = experiment: Local thigh muscle infection with MRSA 2141 in the mouse, CFU outgrowth; type: in vivo; details: for Log reduction of MRSA 2141 CFU in thigh muscle: vs vehicle; for Reduction of bacterial outgrowth against the untreated group: P≦0.01
Protocol: (§1) The purpose of this study was to investigate the antibiotic efficacy of different doses of compound BAS00674552 against a local infection with MRSA 2141 in the mouse. Thirty mice were treated intravenously with 0.5, 5.0 or 50 mg/kg body weight, respectively. The observation period was three days. Outgrowth of the infection was used to establish drug efficacy.
The test substances were administered as a solution in dimethylsulfoxide (DMSO). The test substance was administered as 20 μl injections per mouse at all dose levels. Vancomycin was used as positive control and injected intravenously as a 10 mg/ml solution in DMSO (20 μl per mouse).
The study was performed according to Lab-Sop-Amp-Anim-002 and Lab-Sop-Amp-Bac-003. In short, mice were injected with 11E05 MRSA bacteria, strain 2141 in the right thigh muscle, followed one day later by an i.v. injection of the test compound, vancomycin or vehicle in the tail vein. 24 hours later mice were sacrificed, blood was collected by heart puncture and the right thigh muscle was removed. Plasma was prepared from blood samples and stored at −80°±10° C. for possible future analysis. Thigh muscles were weighted and homogenized using an Ultra-Turrax® and dilutions of the homogenate were prepared in saline. Limiting dilutions were plated onto agar plates and two days later the number of MRSA 2141 CFU were determined for each individual mouse as an indication of bactericidal activity of the compound. Additionally, tests were performed to determine if the bacteria used are still oxacillin resistant Staphylococcus aureus. This was done before injection and on pooled thigh muscle isolates per group. For this purpose Staphaurex® (Remel Europe Ltd., Crossways, UK) and ORSAB®+supplements (Oxoid Ltd., Basingstoke, UK) were used. In vivo antibiotic activity is determined by a CFU reduction of >90% (1 log reduction) in comparison to the negative control (vehicle only).
The study was comprised five groups of 10 females each.

S. aureus ATCC6538 = experiment: Further MIC tests, performed as in Example 1; type: cell-based; details: Staphylococcus aureus
Protocol: (§2) MIC test were performed according to standard methodology: M7-A6-“Methods for Dilution Antimicrobial Susceptibility Tests for Bacteria That Grow Aerobically”; Approved Standard, Sixth Edition Clinical and Laboratory Standards Institute 2005 (CLSI/formerly NCCLS).
Further MIC tests, performed as in Example 1, were performed on several of the above synthesized compounds.

S. aureus MW2 = experiment: MIC test (CLSI M7-A6), single strain; type: cell-based; details: Staphylococcus aureus
Protocol: as §2
(§3) Table 2 lists the results of 3 different compounds according to Formula (I) on single strains of S. aureus as MIC values expressed in micrograms per milliliter.

S. aureus ATCC 29213 = experiment: MIC test (CLSI M7-A6), single strain; type: cell-based; details: Staphylococcus aureus, ATCC29213; single strain ATCC 29213
Protocol: as §2, §3

S. aureus N315 = experiment: MIC test (CLSI M7-A6), single strain; type: cell-based; details: Staphylococcus aureus
Protocol: as §2, §3

[1] = system: multiple strains of S. aureus; experiment: MIC test on multiple strains of S. aureus; type: cell-based, Staphylococcus aureus; details: for MIC 50 / MIC 90: 59-60 tested S. aureus strains; for Range MIC (lowest-highest): highest: highest value over 59-60 tested S. aureus strains; for Range MIC (lowest-highest): lowest: lowest value over 59-60 tested S. aureus strains
Protocol: MIC test were performed according to standard methodology: M7-A6-“Methods for Dilution Antimicrobial Susceptibility Tests for Bacteria That Grow Aerobically”; Approved Standard, Sixth Edition Clinical and Laboratory Standards Institute 2005 (CLSI/formerly NCCLS). The MIC values are expressed as a range between the lowest value and the highest value found in these experiments. Both the average MIC50 and MIC90 are indicated in bold.

[2] = Observation scoring for adverse side effects in infected treated mice; type: in vivo, mouse; details: all animals
Protocol: as §1

[3] = duplo (duplicate determination), read-out: MIC-value S. aureus ATCC6538 duplo
[4] = first determination, read-out: MIC-value S. aureus ATCC6538

SMILES	MIC (S. aureus ATCC6538; [3]) [µg/mL]	MIC (S. aureus ATCC6538; [4]) [µg/mL]	MIC (S. aureus MW2) [µg/mL]	MIC (S. aureus ATCC 29213) [µg/mL]	MIC (S. aureus N315) [µg/mL]	MIC 50 [1] [microgram/milliliter]	MIC 90 [1] [microgram/milliliter]	Range MIC (lowest-highest): highest [1] [microgram/milliliter]	Range MIC (lowest-highest): lowest [1] [microgram/milliliter]	other results
CN[C@H](CC(C)C)C(=O)N[C@H]1C(=O)N[C@@H](CC(N)=O)C(=O)N[C@H]2C(=O)N[C@H]3C(=O)N[C@H](C(=O)N[C@H](C(=O)O)c4cc(O)cc(O)c4-c4cc3ccc4O)[C@H](O)c3ccc(c(Cl)c3)Oc3cc2cc(c3O[C@@H]2O[C@H](CO)[C@@H](O)[C@H](O)[C@H]2O[C@H]2C[C@](C)(N)[C@H](O)[C@H](C)O2)Oc2ccc(cc2Cl)[C@H]1O [vancomycin, Vancomycin, reference compound]	–	–	–	–	–	–	–	–	–	Log reduction of MRSA 2141 CFU in thigh muscle (MRSA 2141; positive control, 10 mg/ml i.v., 20 μl per mouse (10 mg/kg)): Over 1 Log
CCNC(=O)OCCOC(=O)Nc1ccc(Cl)c(Cl)c1 [TAC 1_011, (3,4-dichloro-phenyl)-carbamic acid 2-ethylcarbamoyloxy-ethyl ester]	100 (≈ 311 µM)	100 (≈ 311 µM)	–	–	–	–	–	–	–	–
CCOC(=O)NCCOC(=O)Nc1ccc(Cl)c(Cl)c1 [BAS 00212008, (3,4-dichloro-phenyl)-carbamic acid 2-ethoxycarbonylamino-ethyl ester]	–	–	16 (≈ 49.8 µM)	16 (≈ 49.8 µM)	8 (≈ 24.9 µM)	>32	>32	>32	>32	–
NC(=O)OCCOC(=O)Nc1ccc(Cl)c(Cl)c1 [TAC 1_009, (3,4-dichloro-phenyl)-carbamic acid 2-carbamoyloxy-ethyl ester]	50 (≈ 171 µM)	100 (≈ 341 µM)	–	–	–	–	–	–	–	–
CC(C)COC(=O)NCC(C)OC(=O)Nc1ccc(Cl)c(Cl)c1 (centres unmarked) [BAS 00674552, (3,4-dichloro-phenyl)-carbamic acid 2-isobutoxycarbonylamino-1-methyl-ethyl ester]	6.25 (≈ 17.2 µM)	25 (≈ 68.8 µM)	4 (≈ 11 µM)	8 (≈ 22 µM)	4 (≈ 11 µM)	8	16	>32	4	Log reduction of MRSA 2141 CFU in thigh muscle (MRSA 2141; 5 mg/kg single i.v. dose, 24 h after dosing): Approximately 2 Log; Reduction of bacterial outgrowth against the untreated group (MRSA 2141; 5 mg/kg): significant reduction of bacterial outgrowth; Log reduction of MRSA 2141 CFU in thigh muscle (MRSA 2141; 50 mg/kg single i.v. dose, 24 h after dosing): Approximately 2 Log; Reduction of bacterial outgrowth against the untreated group (MRSA 2141; 50 mg/kg): significant reduction of bacterial outgrowth; Efficacy against local MRSA 2141 infection (statistical analysis) (MRSA 2141; all doses, P≦0.001): effective; Score on observation scoring sheets (DEC guidelines) [2]: < 8; Adverse side effects ([2]; single i.v. dose 0.5-50 mg/kg): no signs of adverse side effects were observed
Cc1ccc(NC(=O)OC(C)CNC(=O)OCC(C)C)cc1 (centres unmarked) [TAC 1_005, p-tolyl-carbamic acid 2-isobutoxycarbonylamino-1-methyl-ethyl ester]	50 (≈ 162 µM)	100 (≈ 324 µM)	–	–	–	–	–	–	–	–
CC(C)COC(=O)NCC(C)OC(=O)Nc1ccc(C(F)(F)F)cc1 (centres unmarked) [TAC 1_007, (4-trifluoromethyl-phenyl)-carbamic acid 2-isobutoxycarbonylamino-1-methyl-ethyl ester]	25 (≈ 69 µM)	12.5 (≈ 34.5 µM)	–	–	–	–	–	–	–	–
CNC(=O)OCCOC(=O)Nc1ccc(Cl)c(Cl)c1 [TAC 1_010, (3,4-dichloro-phenyl)-carbamic acid 2-methylcarbamoyloxy-ethyl ester]	50 (≈ 163 µM)	100 (≈ 326 µM)	–	–	–	–	–	–	–	–
CCC(COC(=O)Nc1ccc(Cl)c(Cl)c1)NC(=O)OC(C)C (centres unmarked) [BAS 00674544, (3,4-dichloro-phenyl)-carbamic acid 2-isopropoxycarbonylamino-butyl ester]	–	–	8 (≈ 22 µM)	8 (≈ 22 µM)	8 (≈ 22 µM)	16	32	>32	8	–
